# Laboratory results reported in PubChem BioAssay (NCI).
#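 A five-concentration, 48-hour dose response in 96-well plates underlies each endpoint, interpolated linearly between surrounding concentrations. TGI denotes the concentration required for complete inhibition of growth.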
# Legend:
# Experiment in all cases: DTP human tumour cell line panel, 48 h
# LOX IMVI melanoma = test system: LOX IMVI melanoma
# NCI-H460 lung = test system: NCI-H460 lung
# CAKI-1 renal = test system: CAKI-1 renal
# COLO 205 colon = test system: COLO 205 colon
# ACHN renal = test system: ACHN renal
# U251 CNS = test system: U251 CNS
# SF-268 CNS = test system: SF-268 CNS
# CCRF-CEM leukemia = test system: CCRF-CEM leukemia
# HCT-15 colon = test system: HCT-15 colon
# NCI-H226 lung = test system: NCI-H226 lung
# IGROV1 ovarian = test system: IGROV1 ovarian
# A498 renal = test system: A498 renal
# K-562 leukemia = test system: K-562 leukemia
# EKVX NSCLC = test system: EKVX NSCLC
# MDA-MB-231 breast = test system: MDA-MB-231 breast
# SF-295 CNS = test system: SF-295 CNS
# SF-539 CNS = test system: SF-539 CNS
# TK-10 renal = test system: TK-10 renal
# DU-145 prostate = test system: DU-145 prostate
# KM12 colon = test system: KM12 colon
# HCC-2998 colon = test system: HCC-2998 colon
# MDA-MB-435 = test system: MDA-MB-435
# HT29 colon = test system: HT29 colon
# M14 melanoma = test system: M14 melanoma
# SR leukemia = test system: SR leukemia
# MCF7 breast = test system: MCF7 breast
# HOP-92 NSCLC = test system: HOP-92 NSCLC
# SK-OV-3 ovarian = test system: SK-OV-3 ovarian
# MOLT-4 leukemia = test system: MOLT-4 leukemia
# HL-60(TB) leukemia = test system: HL-60(TB) leukemia
# A549 NSCLC = test system: A549 NSCLC
# SNB-19 CNS = test system: SNB-19 CNS
# SK-MEL-28 melanoma = test system: SK-MEL-28 melanoma
# UO-31 renal = test system: UO-31 renal
# HS 578T breast = test system: HS 578T breast
# SW-620 colon = test system: SW-620 colon
# OVCAR-4 ovarian = test system: OVCAR-4 ovarian
# NCI-H522 lung = test system: NCI-H522 lung
# NCI-H23 lung = test system: NCI-H23 lung
# PC-3 prostate = test system: PC-3 prostate
# OVCAR-5 ovarian = test system: OVCAR-5 ovarian
# RXF 393 renal = test system: RXF 393 renal
# NCI/ADR-RES ovarian = test system: NCI/ADR-RES ovarian
# SK-MEL-2 melanoma = test system: SK-MEL-2 melanoma
# BT-549 breast = test system: BT-549 breast
# UACC-62 melanoma = test system: UACC-62 melanoma
# OVCAR-8 ovarian = test system: OVCAR-8 ovarian
# SK-MEL-5 melanoma = test system: SK-MEL-5 melanoma
# 786-0 renal = test system: 786-0 renal
# UACC-257 melanoma = test system: UACC-257 melanoma
# SN12C renal = test system: SN12C renal
# OVCAR-3 ovarian = test system: OVCAR-3 ovarian
# HOP-62 NSCLC = test system: HOP-62 NSCLC
# RPMI-8226 leukemia = test system: RPMI-8226 leukemia
# SNB-75 CNS = test system: SNB-75 CNS
# MALME-3M melanoma = test system: MALME-3M melanoma
# HCT-116 colon = test system: HCT-116 colon
# T-47D breast = test system: T-47D breast
smiles,measurement,setting,value
Nc1ccccc1SCc1csc(-c2ccc(Cl)cc2)n1,TGI,LOX IMVI melanoma,35.2 µM
same,TGI,NCI-H460 lung,> 77.2 µM
same,TGI,CAKI-1 renal,> 100 µM
same,TGI,COLO 205 colon,34.6 µM
same,TGI,ACHN renal,73.2 µM
same,TGI,U251 CNS,60.1 µM
same,TGI,SF-268 CNS,> 100 µM
same,TGI,CCRF-CEM leukemia,67.1 µM
same,TGI,HCT-15 colon,> 82.1 µM
same,TGI,NCI-H226 lung,62.5 µM
same,TGI,IGROV1 ovarian,> 100 µM
same,TGI,A498 renal,55.9 µM
same,TGI,K-562 leukemia,63.9 µM
same,TGI,EKVX NSCLC,86.9 µM
same,TGI,MDA-MB-231 breast,54.6 µM
same,TGI,SF-295 CNS,> 100 µM
same,TGI,SF-539 CNS,53.2 µM
same,TGI,TK-10 renal,> 100 µM
same,TGI,DU-145 prostate,99.1 µM
same,TGI,KM12 colon,47.4 µM
same,TGI,HCC-2998 colon,47.1 µM
same,TGI,MDA-MB-435,37.8 µM
same,TGI,HT29 colon,46.2 µM
same,TGI,M14 melanoma,41.7 µM
same,TGI,SR leukemia,29.9 µM
same,TGI,MCF7 breast,71.8 µM
same,TGI,HOP-92 NSCLC,60.1 µM
same,TGI,SK-OV-3 ovarian,> 89.6 µM
same,TGI,MOLT-4 leukemia,25 µM
same,TGI,HL-60(TB) leukemia,23.9 µM
same,TGI,A549 NSCLC,> 100 µM
same,TGI,SNB-19 CNS,> 100 µM
same,TGI,SK-MEL-28 melanoma,> 94.5 µM
same,TGI,UO-31 renal,46.6 µM
same,TGI,HS 578T breast,> 91.5 µM
same,TGI,SW-620 colon,> 100 µM
same,TGI,OVCAR-4 ovarian,> 77.1 µM
same,TGI,NCI-H522 lung,31.1 µM
same,TGI,NCI-H23 lung,> 84.6 µM
same,TGI,PC-3 prostate,> 71.5 µM
same,TGI,OVCAR-5 ovarian,> 95.2 µM
same,TGI,RXF 393 renal,60.4 µM
same,TGI,NCI/ADR-RES ovarian,66.4 µM
same,TGI,SK-MEL-2 melanoma,35.2 µM
same,TGI,BT-549 breast,72.1 µM
same,TGI,UACC-62 melanoma,> 64 µM
same,TGI,OVCAR-8 ovarian,> 100 µM
same,TGI,SK-MEL-5 melanoma,28.7 µM
same,TGI,786-0 renal,47.5 µM
same,TGI,UACC-257 melanoma,> 77.7 µM
same,TGI,SN12C renal,34.2 µM
same,TGI,OVCAR-3 ovarian,> 67.6 µM
same,TGI,HOP-62 NSCLC,> 90.6 µM
same,TGI,RPMI-8226 leukemia,44.7 µM
same,TGI,SNB-75 CNS,> 100 µM
same,TGI,MALME-3M melanoma,47 µM
same,TGI,HCT-116 colon,> 100 µM
same,TGI,T-47D breast,23.4 µM
